In general, solubility (kinetic) refers to solubility judged after dilution from a stock solution rather than from solid.

In brackets after ≈: the same amount, converted by molar mass. A value given as a limit tells only on which side of the number the result lay.

These results are taken from PubChem BioAssay AID1996.

For this series the following is noted: buffer; pH 7.4; 200.0 µM.
`COCCNC(=O)c1ccccc1NC(=O)c1cccc([N+](=O)[O-])c1C` registered a solubility (kinetic) of 53.5 µg/mL (≈ 150 µM). As to `CC(=O)Nc1ccc(NC(=O)c2ccc(COc3ccccc3)cc2)cc1`, the solubility (kinetic) was determined as 0.6 µg/mL (≈ 1.66 µM). The same measure for `Cc1cccc(OCCCCCN2CCOCC2)c1`: 29.9 µg/mL (≈ 114 µM); for `Cc1cc(Cl)cc(C)c1OCCCCCn1ccnc1`: 30.7 µg/mL (≈ 105 µM); for `O=C(c1cc([N+](=O)[O-])ccc1Cl)N1CCc2ccccc21`: 1.6 µg/mL (≈ 5.29 µM).

In turn, `CCOC(=O)c1csc(NC(=O)c2ccc(C#N)cc2)n1` yielded a solubility (kinetic) of 1 µg/mL (≈ 3.32 µM). For the compound `O=C1c2cccc3c(O)ccc(c23)C(=O)N1c1ccc(Cl)cc1`, the kinetic solubility came out at 16.2 µg/mL (≈ 50 µM).

Turning to `Cc1ccccc1N1C(=O)c2cccc3cccc(c23)C1=O`, the solubility (kinetic) is 2.5 µg/mL (≈ 8.7 µM). The same measure for `CC(=O)Nc1ccc(S(=O)(=O)N(C)CC(=O)OCC(=O)N2CCCCCC2)cc1`: 60.3 µg/mL (≈ 142 µM).

Regarding `NC(=O)C1CCN(c2oc(-c3cccs3)nc2S(=O)(=O)c2ccc(Cl)cc2)CC1`, the solubility (kinetic) is 51.9 µg/mL (≈ 115 µM). As for `COC(=O)c1ccsc1NC(=O)CN1CCN(c2ncccn2)CC1`, the figure is 4.1 µg/mL (≈ 11.3 µM); as for `CCN1CCN(c2nc(N(C)c3ccccc3)nc(N)c2[N+](=O)[O-])CC1`, 49.3 µg/mL (≈ 138 µM). The same measure for `CN(Cc1ccccc1)C(=S)NC(=O)c1cccs1`: more than 43.6 µg/mL. Compound `COc1ccc(C(=O)NC(=S)N2CCN(c3ccccc3O)CC2)cc1` gave a solubility (kinetic) of 6.1 µg/mL (≈ 16.4 µM). In turn, `Cc1ccc(S(=O)(=O)N2CCNC(=O)C2)c(C)c1` displayed a solubility (kinetic) of more than 40.2 µg/mL.

The compound `O=C(CCl)Nc1ncc(S(=O)(=O)c2ccc([N+](=O)[O-])cc2)s1` yielded a solubility (kinetic) of more than 54.3 µg/mL. The same measure for `O=C(Nc1nc(-c2ccccc2)cs1)c1ccco1`: 22.3 µg/mL (≈ 82.5 µM). As for `COc1ccc(NC(=O)CN2CCc3ccccc3C2)c([N+](=O)[O-])c1`, the figure is 1.8 µg/mL (≈ 5.27 µM).

`CCOc1ccc(C(c2c(O)nc(SC)[nH]c2=O)c2c(O)nc(SC)[nH]c2=O)cc1` gave a solubility (kinetic) of more than 67.3 µg/mL. On to `Cc1cccc(Oc2nc3c(c(=O)n(C)c(=O)n3C)n2C)c1`, for which the solubility (kinetic) was more than 45 µg/mL. Compound `Cc1ccc(O)c(NC(=O)c2noc(C(C)C)c2[N+](=O)[O-])c1` showed a solubility (kinetic) of 40.5 µg/mL (≈ 133 µM). As for `CCC(C(=O)Nc1ccon1)c1ccccc1` (stereo unspecified), the figure is more than 34.5 µg/mL; as for `CN(Cc1nc2ccccc2c(=O)[nH]1)C(=O)c1cccc(S(=O)(=O)N2CCc3ccccc32)c1`, 36.5 µg/mL (≈ 76.9 µM). For the compound `O=C(OCc1c(F)cccc1Cl)c1cnc2ccccc2n1`, the kinetic solubility is 1.8 µg/mL (≈ 5.68 µM). As for `Cc1nc2ccc(Cl)cc2c(=O)n1-c1ccccc1Cl`, the figure is 10.4 µg/mL (≈ 34.1 µM). The same measure for `COc1ccc(-c2csc(-c3cccs3)n2)c(OC)c1`: 0.8 µg/mL (≈ 2.64 µM). The compound `Cc1ccc(C(OC(=O)c2ccco2)C(=O)NC2CCCC2)cc1` (stereo unspecified) came in with a kinetic solubility of 2 µg/mL (≈ 6.11 µM). The same measure for `CCN(CC)P(=O)(c1nccn1C)N(CC)CC`: 40.7 µg/mL (≈ 149 µM); for `CCOC(=O)c1cc(C#N)c(N2CCCNCC2)nc1C(F)(F)F`: more than 51.3 µg/mL. The same measure for `Cc1ccc(C)c(OCCC(=O)OCC(=O)Nc2cc(S(=O)(=O)N3CCCCC3)ccc2C)c1`: 13.9 µg/mL (≈ 28.4 µM); for `Cc1ccc(CCNC(=O)C2CCC(=O)N2CCc2ccccc2)cc1` (stereo unspecified): 47.1 µg/mL (≈ 134 µM). As for `CSCC[C@H](NC(=O)c1cccc(S(=O)(=O)N2CCCCC2)c1)c1nc2ccccc2[nH]1`, the figure is 1.6 µg/mL (≈ 3.39 µM). `O=[N+]([O-])c1ccccc1S(=O)(=O)Nc1ncccn1` displayed a solubility (kinetic) of more than 42 µg/mL.

Compound `N#Cc1c(N2CCOCC2)nsc1-c1ccc(C(F)(F)F)cc1` had a kinetic solubility of less than 0.2 µg/mL. As for `CC(C)(C)C(=O)Nc1ccc(C(=O)COC(=O)c2ccccn2)cc1`, the figure is 50.2 µg/mL (≈ 147 µM); as for `Cc1cc(NC(=O)Cc2ccccc2C)no1`, 32.5 µg/mL (≈ 141 µM); as for `O=C(O)CCC(=O)N(Cc1ccco1)C1CC(=O)N(c2ccccc2)C1=O` (stereo unspecified), more than 55.6 µg/mL. The same measure for `Cl.O=C(NCC(c1ccc(F)cc1)N1CCOCC1)c1ccc([N+](=O)[O-])o1` (stereo unspecified): more than 60 µg/mL; for `O=C(NCCc1ccc(Cl)cc1)c1ccc2nccnc2c1`: 4.8 µg/mL (≈ 15.4 µM); for `CN(CC(=O)Nc1cccc(F)c1)C(=O)/C=C/c1ccc2ccccc2n1`: 9.9 µg/mL (≈ 27.2 µM). As for `O=C(CN1C(=O)C2(OCCO2)c2cc(Br)ccc21)NO`, the figure is 46.7 µg/mL (≈ 136 µM); as for `CCOCCOc1cccc(C(=O)NC(c2ccccc2)C(C)C)c1` (stereo unspecified), 6.2 µg/mL (≈ 18.2 µM); as for `Cc1ccc(C)c(N2CCN(C(=O)C3CCC3)CC2)c1`, more than 40.9 µg/mL. `O=[N+]([O-])c1cccc(S(=O)(=O)N2CCc3ccccc3C2)c1` came in with a solubility (kinetic) of less than 0.3 µg/mL. As for `O=c1[nH]c(SCc2ccc(Cl)cc2)nc2ccccc12`, the figure is 0.8 µg/mL (≈ 2.64 µM); as for `O=C(CN1CCc2ccccc2C1)Nc1ccccc1Cl`, 8.7 µg/mL (≈ 28.9 µM). The same measure for `Cc1occc1C(=O)Nc1sccc1C(N)=O`: 10.7 µg/mL (≈ 42.8 µM).

Compound `O=C(COC(=O)c1ccncc1)c1ccc(Cl)c(Cl)c1` registered a solubility (kinetic) of 39.8 µg/mL (≈ 128 µM).

`CSCCC(NC(=O)COc1ccccc1)C(=O)N1CCCC(C)C1` (stereo unspecified) returned a kinetic solubility of more than 54.7 µg/mL.

Take `CN(C)c1ccc(/C=C(/NC(=O)c2ccccc2)C(=O)N2CCCC2)cc1`: the solubility (kinetic) was determined as 47.7 µg/mL (≈ 131 µM). The same measure for `C=C(C)CNC(=O)c1ccc2nc(Cc3ccc(OC)cc3)oc2c1`: 40.5 µg/mL (≈ 120 µM).
